The source of these data is patent US4709083A, “Method of making boron analogues” (The United States of America as represented by the …, priority 1986, dated 1987).

The subject of one assay is serum triglyceride. As to the kind of experiment: hyperlipidemic screen: serum triglycerides (Fisher, Hycel Triglyceride Test Kit). It counts as in vivo. The settings on record: male CF1 mice, intraperitoneal, 20 mg/kg day, 1% aqueous carboxymethylcellulose. Here is the method: (§1) A hyperlipidemic screen was performed using the compounds of Examples 2 and 4. The compounds were suspended in 1% aqueous carboxymethylcellulose and adimistered to male CF1 mice intraperitoneally for 16 days at a dosage of 20 mg/kg day.
(§2) On days 9 and 16 blood was obtained by tail vein bleeding and the serum separated by centrifugation for 3 min.
(§3) Serum cholesterol levels were determined using a modification of the Liebermann-Burchard reaction, see Ness et al, Clin. Chim. Acta, v. 10, p. 229, (1964). Serum triglicerides were determined using the Fisher, Hycel Triglyceride Test Kit, a commercially available kit.

The next assay has as its system serum cholesterol. As to the kind of experiment: hyperlipidemic screen: serum cholesterol levels (modified Liebermann-Burchard reaction). The format is in vivo. The settings on record: male CF1 mice, intraperitoneal, 20 mg/kg day, 1% aqueous carboxymethylcellulose. Here is the method: as §1, §2, §3

In the case of `[BH3-][N+](C)(C)CCOC(=O)c1ccccc1` [Example 4, 2-(benzoyloxyethyl)dimethylamine-Borane], the “Triglyceride inhibition %, 16th Day” value in the assay with serum triglyceride was 31%. In addition, in the assay with serum cholesterol, the “Serum cholesterol inhibition %, 9th Day” value worked out at 31% and the “Serum cholesterol inhibition %, 16th Day” value turned out to be 37%.
Consider `[BH3-][N+](C)(C)CCOC(C)=O` [Example 2, 2 (Acetoxyethyl)dimethylamine-borane], for which the “Triglyceride inhibition %, 16th Day” value with serum triglyceride is given as 32%. Besides, in the assay on serum cholesterol, the “Serum cholesterol inhibition %, 9th Day” value worked out at 28% and the “Serum cholesterol inhibition %, 16th Day” value is recorded as 41%.
